Laboratory results: US5866540A, “Cyclic adhesion inhibitors” (Merck Patent Gesellschaft mit Beschrankter Haftung, priority 1995, dated 1999)
Where a SMILES comes first, the peptide text is derived from it. [ ]: non-standard residue; d: D form.

What was measured:
αIIbβ3 = αIIbβ3 (Homo sapiens, UniProt P05106+P08514); assay: Solid-phase receptor binding ELISA: competition with biotinylated fibrinogen on coated integrin receptor; conditions: ligand biotinylated fibrinogen 1 μg/ml; receptor coated at 1 μg/ml; 3 h at 30° C.; triplicates
Method: (§1) The effect was found by using the method of J. W. Smith, Z. M. Ruggei, T. J. Kunicki and D. A. Cheesh descibed in J. Biol. Chem. 265, 12 267-12 271 (1990).
(§2) Details of the method are as follows:
(§3) A ninety six well untreated flat bottom plate was coated with 100 μl/well of 1 μg/ml receptor (αIIβe; αVβ3) in coating buffer and incubated on a shaker at 4° C. overnight. The plate was washed 1× with binding buffer and then blocked with blocking buffer (100 μl/well for two hours at 30° C. After an additional washing with binding buffer, the biotinylated ligand and the competitor were added.
(§4) The ligand fibrinogen was used at a final concentration of 1 μg/ml. The competitor was added at increasing concentrations. Both ligand and competitor were added in volume of 50 μl/well at 2× of the final concentration diluted in binding buffer.
(§5) The plate was covered and incubated for three hours at 30° C. To remove unbound material the plate was washed 3× with binding buffer 100 μl/well.
(§6) Goat anti biotin antibody alkaline phosphatase conjugate (1:2000 dilution) in binding buffer was added (100 μl/well) and the plate was incubated for one hour at 30° C.
(§7) The plate was washed 3× with binding buffer, the substrate solution was added and developed in the dark at room temperature for 1-5 minutes.
(§8) The reaction was stopped by addition of 100 μl/well of 0.4M NaOH and read in the ELISA reader at 405 nm.
(§9) All points were run in triplicates.

αvβ3 = αvβ3 (Homo sapiens, UniProt P05106+P06756); assay: as above; conditions: ligand biotinylated fibrinogen 1 μg/ml; receptor coated at 1 μg/ml; 3 h at 30° C.; triplicates
Method: as §1, §2, §3, §4, §5, §6, §7, §8, §9

**Q.** For CC(C)[C@@H]1NC(=O)[C@@H](Cc2ccccc2)NC(=O)[C@H](CC(=O)O)NC(=O)[C@H](C)NC(=O)[C@H](CCCN=C(N)N)NC1=O [cyclo(--Arg--Ala--Asp--D--Phe--Val), cyclo(-Arg-Ala-Asp-D-Phe-Val)] (cyclo(AD[dF]VR)), which IC50 (αIIbβ3) is on record?
**A.** > 100 µM

**Q.** And the IC50 (αvβ3)?
**A.** 0.77 µM

**Q.** CC(C)[C@@H]1NC(=O)[C@H](Cc2ccccc2)NC(=O)[C@H](CC(=O)O)NC(=O)[C@@H](C)NC(=O)[C@H](CCCNC(=N)N)NC1=O [cyclo(--Arg--D--Ala--Asp--Phe--Val), cyclo(-Arg-D-Ala-Asp-Phe-Val)] (cyclo(R[dA]DFV)) was tested. Which IC50 (αIIbβ3) did it give?
**A.** > 100 µM

**Q.** And the IC50 (αvβ3)?
**A.** 52 µM

**Q.** Which IC50 (αIIbβ3) does the source give for CC(C)C[C@@H]1NC(=O)[C@@H](Cc2ccccc2)NC(=O)[C@H](CC(=O)O)NC(=O)CNC(=O)[C@H](CCCNC(=N)N)NC(=O)[C@H](C)NC1=O [cyclo(--Arg--Gly--Asp--D--Phe--Leu--Ala), cyclo(-Arg-Gly-Asp-D-Phe-Leu-Ala)] (cyclo(ARGD[dF]L)) here?
**A.** 0.76 µM

**Q.** What about the IC50 (αvβ3) of the same compound?
**A.** 1.1 µM

**Q.** CC(C)C[C@@H]1NC(=O)[C@@H](Cc2ccccc2)NC(=O)[C@H](CC(=O)O)NC(=O)CNC(=O)[C@H](CCCNC(=N)N)NC(=O)CNC1=O [cyclo(--Arg--Gly--Asp--D--Phe--Leu--Gly), cyclo(-Arg-Gly-Asp-D-Phe-Leu-Gly)] (cyclo(GRGD[dF]L)) was tested. Which IC50 (αIIbβ3) did it give?
**A.** 0.06 µM

**Q.** What about the IC50 (αvβ3) of the same compound?
**A.** 0.54 µM

**Q.** For CC(C)[C@@H]1NC(=O)[C@@H](Cc2ccccc2)NC(=O)[C@H](CC(=O)O)NC(=O)CNC(=O)[C@H](CCCNC(=N)N)NC(=O)[C@H](C)NC1=O [cyclo(--Arg--Gly--Asp--D--Phe--Val--Ala), cyclo(-Arg-Gly-Asp-D-Phe-Val-Ala)] (cyclo(RGD[dF]VA)), which IC50 (αIIbβ3) is on record?
**A.** 0.32 µM

**Q.** And the IC50 (αvβ3)?
**A.** 0.9 µM

**Q.** With CC(C)[C@@H]1NC(=O)[C@@H](Cc2ccccc2)NC(=O)[C@H](CC(=O)O)NC(=O)CNC(=O)[C@H](CCCNC(=N)N)NC(=O)CNC1=O [cyclo(--Arg--Gly--Asp--D--Phe--Val--Gly), cyclo(-Arg-Gly-Asp-D-Phe-Val-Gly)] (cyclo(RGD[dF]VG)) as the compound, how does the IC50 (αIIbβ3) read?
**A.** 0.13 µM

**Q.** And the IC50 (αvβ3)?
**A.** 0.62 µM

**Q.** How did the IC50 (αIIbβ3) turn out when C[C@@H]1NC(=O)[C@H]2CCCN2C(=O)[C@H](Cc2ccccc2)NC(=O)[C@H](CC(=O)O)NC(=O)CNC(=O)[C@H](CCCNC(=N)N)NC1=O [cyclo(--Arg--Gly--Asp--Phe--D--Pro--Ala), cyclo(-Arg-Gly-Asp-Phe-D-Pro-Ala)] (cyclo(RGDF[dP]A)) was run?
**A.** 0.74 µM

**Q.** And the IC50 (αvβ3)?
**A.** 0.37 µM

**Q.** For N=C(N)NCCC[C@@H]1NC(=O)CNC(=O)[C@H]2CCCN2C(=O)[C@H](Cc2ccccc2)NC(=O)[C@H](CC(=O)O)NC(=O)CNC1=O [cyclo(--Arg--Gly--Asp--Phe--D--Pro--Gly)] (cyclo(RGDF[dP]G)), which IC50 (αIIbβ3) is on record?
**A.** 1.5 µM

**Q.** And the IC50 (αvβ3)?
**A.** 1.06 µM

**Q.** For CC(C)C[C@@H]1NC(=O)[C@H](Cc2ccccc2)NC(=O)[C@H](CC(=O)O)NC(=O)CNC(=O)[C@H](CCCNC(=N)N)NC(=O)[C@@H](C)NC1=O [cyclo(--Arg--Gly--Asp--Phe--Leu--D--Ala), cyclo(-Arg-Gly-Asp-Phe-Leu-D-Ala)] (cyclo(RGDFL[dA])), which IC50 (αIIbβ3) is on record?
**A.** 0.76 µM

**Q.** What about the IC50 (αvβ3) of the same compound?
**A.** 0.31 µM

**Q.** Which results are given for C[C@@H]1NC(=O)[C@@H]2CCCN2C(=O)[C@H](Cc2ccccc2)NC(=O)[C@H](CC(=O)O)NC(=O)CNC(=O)[C@H](CCCNC(=N)N)NC1=O [cyclo(--Arg--Gly--Asp--Phe--Pro--Ala), cyclo(-Arg-Gly-Asp-Phe-Pro-Ala)] (cyclo(RGDFPA))?
**A.** IC50 (αIIbβ3): 0.62 µM; IC50 (αvβ3): 0.48 µM

**Q.** How did the IC50 (αIIbβ3) turn out when N=C(N)NCCC[C@@H]1NC(=O)CNC(=O)[C@@H]2CCCN2C(=O)[C@H](Cc2ccccc2)NC(=O)[C@H](CC(=O)O)NC(=O)CNC1=O [cyclo(--Arg--Gly--Asp--Phe--Pro--Gly), cyclo(-Arg-Gly-Asp-Phe-Pro-Gly)] (cyclo(RGDFPG)) was run?
**A.** 1.53 µM

**Q.** What about the IC50 (αvβ3) of the same compound?
**A.** 0.16 µM

**Q.** With CC(C)[C@@H]1NC(=O)[C@H](Cc2ccccc2)NC(=O)[C@H](CC(=O)O)NC(=O)CNC(=O)[C@H](CCCNC(=N)N)NC(=O)[C@@H](C)NC1=O [cyclo(--Arg--Gly--Asp--Phe--Val--D--Ala), cyclo(-Arg-Gly-Asp-Phe-Val-D-Ala)] (cyclo(RGDFV[dA])) as the compound, how does the IC50 (αIIbβ3) read?
**A.** 1.5 µM

**Q.** And the IC50 (αvβ3)?
**A.** 0.25 µM

**Q.** What does the source list for CC(C)[C@@H]1NC(=O)[C@H](Cc2ccccc2)NC(=O)[C@H](CC(=O)O)NC(=O)CNC(=O)[C@@H](CCCNC(=N)N)NC(=O)[C@H](C)NC1=O [cyclo(--D--Arg--Gly--Asp--Phe--Val--Ala), cyclo(-D-Arg-Gly-Asp-Phe-Val-Ala)] (cyclo([dR]GDFVA))?
**A.** IC50 (αIIbβ3): 22 µM; IC50 (αvβ3): 4.5 µM

**Q.** Which results are given for CC(C)[C@@H]1NC(=O)[C@H](Cc2ccccc2)NC(=O)[C@H](CC(=O)O)NC(=O)CNC(=O)[C@@H](CCCNC(=N)N)NC(=O)CNC1=O [cyclo(--D--Arg--Gly--Asp--Phe--Val--Gly), cyclo(-D-Arg-Gly-Asp-Phe-Val-Gly)] (cyclo(G[dR]GDFV))?
**A.** IC50 (αIIbβ3): 20.5 µM; IC50 (αvβ3): 1.52 µM
